# Patent publication US11773071B2, “Benzothiazepine compounds and their use as bile acid modulators” (Albireo AB, priority 2019, dated 2023)
# How the values were obtained:
# Human LBAT = biological target: T1, Human LBAT (Homo sapiens, UniProt Q14973); test: LBAT (h/m) assay, human LBAT-overexpressing cells, 3H-taurocholic acid uptake; format: cell-based; details: 0.3 μM 3H-taurocholic acid and 7.5 μM cold taurocholic acid, 20 minutes, read-out: hLBAT IC50
# T1 construct: expressed in transfected cells; Geneticin-selected
# T1 sequence (Q14973 1-349): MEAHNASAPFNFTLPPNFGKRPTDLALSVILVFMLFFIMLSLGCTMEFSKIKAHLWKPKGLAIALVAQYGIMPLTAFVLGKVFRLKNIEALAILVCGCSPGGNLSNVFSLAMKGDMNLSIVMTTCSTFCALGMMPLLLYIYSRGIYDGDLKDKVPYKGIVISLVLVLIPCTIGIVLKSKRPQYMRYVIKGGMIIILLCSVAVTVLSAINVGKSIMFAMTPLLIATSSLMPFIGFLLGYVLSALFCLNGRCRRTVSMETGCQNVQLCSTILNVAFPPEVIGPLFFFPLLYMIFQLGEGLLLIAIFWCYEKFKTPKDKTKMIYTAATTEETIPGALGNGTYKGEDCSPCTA
# Procedure, shortened: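 Human LBAT-overexpressing cells, washed in FBS-free MEM-alpha, incubated 20 min at 37 °C with 10-point 3-fold inhibitor dilutions (0.2% DMSO final), 0.3 μM 3H-taurocholic acid plus 7.5 μM cold taurocholic acid (mouse LBAT: 25 μM cold). Ice stop, chilled 1 mM taurocholate washes; uptake read by scintillation counting.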
# Human IBAT = biological target: T2, Human IBAT (Homo sapiens, UniProt Q12908); test: IBAT (h/m) assay, human IBAT-overexpressing cells, 3H-taurocholic acid uptake; format: cell-based; details: 0.25 μM 3H-taurocholic acid and 5 μM cold taurocholic acid, 20 minutes, read-out: hIBAT IC50
# T2 construct: expressed in transfected cells; Puromycin-selected
# T2 sequence (Q12908 1-348): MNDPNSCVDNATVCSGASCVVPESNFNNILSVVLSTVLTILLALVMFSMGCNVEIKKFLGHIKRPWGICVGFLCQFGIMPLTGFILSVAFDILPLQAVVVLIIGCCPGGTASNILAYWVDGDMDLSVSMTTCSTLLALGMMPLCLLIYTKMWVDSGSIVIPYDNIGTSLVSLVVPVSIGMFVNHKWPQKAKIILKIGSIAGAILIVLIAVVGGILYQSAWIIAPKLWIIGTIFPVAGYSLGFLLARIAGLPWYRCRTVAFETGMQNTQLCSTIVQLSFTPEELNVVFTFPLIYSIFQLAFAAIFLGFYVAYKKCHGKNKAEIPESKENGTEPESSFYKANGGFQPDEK
# Procedure, shortened: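 Human or mouse IBAT-overexpressing cells, seeded 48 h before the assay, were incubated 20 min at 37 °C with 0.25 μM 3H-taurocholic acid plus 5 μM cold taurocholic acid and inhibitor (10-point 3-fold series from 10 μM top, 0.2% DMSO final), in duplicate. After ice stop and washes with 1 mM cold taurocholate, uptake was read by scintillation counting.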
SMILES,IC50 (Human LBAT) [nM],IC50 (Human IBAT) [nM]
"CCCCC1(CC)CN(c2ccccc2)c2cc(Br)c(OCCC(=O)O)cc2S(=O)(=O)C1 (racemic) [Example 1, 3-((7-Bromo-3-butyl-3-ethyl-1,1-dioxido-5-phenyl-2,3,4,5-tetrahydro-1,5-benzothiazepin-8-yl)oxy)propanoic acid]",2170,18
"CCCCC1(CCCC)CN(c2ccccc2)c2cc(SC)c(OCC(O)C(=O)O)cc2S(=O)(=O)C1 (racemic) [Example 9, 3-((3,3-Dibutyl-7-(methylthio)-1,1-dioxido-5-phenyl-2,3,4,5-tetrahydro-1,5-benzothiazepin-8-yl)oxy)-2-hydroxypropanoic acid]",396,3
"CCCCC1(C)CN(c2ccccc2)c2cc(N(C)C)c(OCCC(=O)O)cc2S(=O)(=O)C1 (single isomer, unassigned) [29, enantiomer 1]",2590,5
"CCCCC1(CC)CN(c2ccccc2)c2cc(Cl)c(OC(C)CC(=O)O)cc2S(=O)(=O)C1 (single isomer, unassigned) [30, diastereomer 1]",283,22
"CCCCC1(C)CN(c2ccccc2)c2cc(SC)c(OCC(O)C(=O)O)cc2S(=O)(=O)C1 (single isomer, unassigned) [32, diastereomer 1]",2950,3
"CCCCC1(CC)CN(c2ccccc2)c2cc(SC)c(OCC(C)(F)C(=O)O)cc2S(=O)(=O)C1 (single isomer, unassigned) [35, diastereomer 1]",48,4
"CCCCC1(CC)CN(c2ccccc2)c2cc(SC)c(OCC(C)(O)C(=O)O)cc2S(=O)(=O)C1 (single isomer, unassigned) [48, diastereomer 2]",155,16
"CCCCC1(CC)CN(c2ccccc2)c2cc(Br)c(OCCC(=O)O)cc2S(=O)(=O)C1 (single isomer, unassigned) [Example 2, 3-((7-bromo-3-butyl-3-ethyl-1,1-dioxido-5-phenyl-2,3,4,5-tetrahydro-1,5-benzothiazepin-8-yl)oxy)propanoic acid]",375,6
"CCCCC1(CC)CN(c2ccccc2)c2cc(Cl)c(OCCC(=O)O)cc2S(=O)(=O)C1 (single isomer, unassigned) [Example 6, 3-((3-butyl-7-chloro-3-ethyl-1,1-dioxido-5-phenyl-2,3,4,5-tetrahydro-1,5-benzothiazepin-8-yl)oxy)propanoic acid]",410,17
"CCCCC1(CCCC)CN(c2ccccc2)c2cc(SC)c(OCC(O)C(=O)O)cc2S(=O)(=O)C1 (single isomer, unassigned) [Example 10, 3-((3,3-dibutyl-7-(methylthio)-1,1-dioxido-5-phenyl-2,3,4,5-tetrahydro-1,5-benzothiazepin-8-yl)oxy)-2-hydroxypropanoic acid]",379,1
"CCCCC1(CCCC)CN(c2ccccc2)c2cc(SC)c(OCC(O)C(=O)O)cc2S(=O)(=O)C1 (single isomer, unassigned) [Example 11, 3-((3,3-dibutyl-7-(methylthio)-1,1-dioxido-5-phenyl-2,3,4,5-tetrahydro-1,5-benzothiazepin-8-yl)oxy)-2-hydroxypropanoic acid]",613,4
"CCCCC1(CC)CN(c2ccccc2)c2cc(SC)c(OCCC(=O)O)cc2S(=O)(=O)C1 (single isomer, unassigned) [Example 13, 3-((3-butyl-3-ethyl-7-(methylthio)-1,1-dioxido-5-phenyl-2,3,4,5-tetrahydro-1,5-benzothiazepin-8-yl)oxy)propanoic acid]",489,4
"CCCCC1(C)CN(c2ccccc2)c2cc(SC)c(OCCC(=O)O)cc2S(=O)(=O)C1 (single isomer, unassigned) [Example 24, 3-((3-butyl-3-methyl-7-(methylthio)-1,1-dioxido-5-phenyl-2,3,4,5-tetrahydro-1,5-benzothiazepin-8-yl)oxy)propanoic acid]",596,7
"CCCCC1(CCCC)CN(c2ccccc2)c2cc(Br)c(OCCC(=O)O)cc2S(=O)(=O)C1 [Example 4, 3-((7-Bromo-3,3-dibutyl-1,1-dioxido-5-phenyl-2,3,4,5-tetrahydro-1,5-benzothiazepin-8-yl)oxy)propanoic acid]",375,26
"CCCCC1(CCCC)CN(c2ccccc2)c2cc(SC)c(OCCC(=O)O)cc2S(=O)(=O)C1 [Example 15, 3-((3,3-dibutyl-7-(methylthio)-1,1-dioxido-5-phenyl-2,3,4,5-tetrahydro-1,5-benzothiazepin-8-yl)oxy)propanoic acid]",1930,32
"CCCCC1(CC)CN(c2ccccc2)c2cc(SC)c(OCC(C)(F)C(=O)O)cc2S(=O)(=O)C1 (centres unmarked) [Example 34, 3-((3-butyl-3-ethyl-7-(methylthio)-1,1-dioxido-5-phenyl-2,3,4,5-tetrahydro-1,5-benzothiazepin-8-yl)oxy)-2-fluoro-2-methylpropanoic acid]",28,12
